Measured values as given in ChEMBL document CHEMBL2177005, “Mineralocorticoid receptor antagonists for the treatment of hypertension and diabetic nephropathy” (J Med Chem, 2012).
Each block holds one compound with its values, some of them ahead of it.

Legend:
Progesterone receptor [1] = biological target: T1, Progesterone receptor (Homo sapiens, UniProt P06401); assay: Antagonist activity at progesterone receptor; type: functional
T1 sequence (P06401 whole entry): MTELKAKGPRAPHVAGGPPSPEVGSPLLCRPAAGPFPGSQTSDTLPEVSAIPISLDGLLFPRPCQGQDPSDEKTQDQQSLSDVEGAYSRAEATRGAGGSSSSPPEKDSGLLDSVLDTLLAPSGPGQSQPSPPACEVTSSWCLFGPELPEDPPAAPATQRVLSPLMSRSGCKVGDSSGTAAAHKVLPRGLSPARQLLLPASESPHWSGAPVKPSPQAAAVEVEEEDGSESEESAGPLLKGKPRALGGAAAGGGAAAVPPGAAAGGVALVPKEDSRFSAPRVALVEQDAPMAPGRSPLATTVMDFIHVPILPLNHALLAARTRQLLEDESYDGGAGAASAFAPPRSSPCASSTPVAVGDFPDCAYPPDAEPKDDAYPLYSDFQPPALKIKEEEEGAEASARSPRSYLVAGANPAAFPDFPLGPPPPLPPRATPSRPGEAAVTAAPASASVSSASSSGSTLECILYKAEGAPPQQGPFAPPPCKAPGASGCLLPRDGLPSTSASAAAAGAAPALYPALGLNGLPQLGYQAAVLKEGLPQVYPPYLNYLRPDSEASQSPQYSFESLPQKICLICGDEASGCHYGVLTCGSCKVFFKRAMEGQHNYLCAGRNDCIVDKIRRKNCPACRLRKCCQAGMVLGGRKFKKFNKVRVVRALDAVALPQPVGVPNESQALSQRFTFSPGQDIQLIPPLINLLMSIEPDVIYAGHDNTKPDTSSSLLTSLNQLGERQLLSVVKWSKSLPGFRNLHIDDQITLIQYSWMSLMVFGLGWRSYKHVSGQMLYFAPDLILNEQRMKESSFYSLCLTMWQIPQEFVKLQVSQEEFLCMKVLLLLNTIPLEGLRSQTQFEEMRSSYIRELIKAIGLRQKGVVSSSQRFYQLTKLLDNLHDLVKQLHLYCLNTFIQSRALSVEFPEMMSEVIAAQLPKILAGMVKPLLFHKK

Progesterone receptor [2] = biological target: T1, Progesterone receptor; assay: Displacement of [3H]methyltrienolone from human progesterone receptor overexpressed in HEK293 cells by microbeta counting assay; type: cell-based
Androgen receptor [3] = biological target: T2, Androgen receptor (Homo sapiens, UniProt P10275); assay: Displacement of [3H]-methyltrienolone from human androgen receptor overexpressed in HEK293 cells by microbeta counting assay; type: cell-based
T2 sequence (P10275 whole entry): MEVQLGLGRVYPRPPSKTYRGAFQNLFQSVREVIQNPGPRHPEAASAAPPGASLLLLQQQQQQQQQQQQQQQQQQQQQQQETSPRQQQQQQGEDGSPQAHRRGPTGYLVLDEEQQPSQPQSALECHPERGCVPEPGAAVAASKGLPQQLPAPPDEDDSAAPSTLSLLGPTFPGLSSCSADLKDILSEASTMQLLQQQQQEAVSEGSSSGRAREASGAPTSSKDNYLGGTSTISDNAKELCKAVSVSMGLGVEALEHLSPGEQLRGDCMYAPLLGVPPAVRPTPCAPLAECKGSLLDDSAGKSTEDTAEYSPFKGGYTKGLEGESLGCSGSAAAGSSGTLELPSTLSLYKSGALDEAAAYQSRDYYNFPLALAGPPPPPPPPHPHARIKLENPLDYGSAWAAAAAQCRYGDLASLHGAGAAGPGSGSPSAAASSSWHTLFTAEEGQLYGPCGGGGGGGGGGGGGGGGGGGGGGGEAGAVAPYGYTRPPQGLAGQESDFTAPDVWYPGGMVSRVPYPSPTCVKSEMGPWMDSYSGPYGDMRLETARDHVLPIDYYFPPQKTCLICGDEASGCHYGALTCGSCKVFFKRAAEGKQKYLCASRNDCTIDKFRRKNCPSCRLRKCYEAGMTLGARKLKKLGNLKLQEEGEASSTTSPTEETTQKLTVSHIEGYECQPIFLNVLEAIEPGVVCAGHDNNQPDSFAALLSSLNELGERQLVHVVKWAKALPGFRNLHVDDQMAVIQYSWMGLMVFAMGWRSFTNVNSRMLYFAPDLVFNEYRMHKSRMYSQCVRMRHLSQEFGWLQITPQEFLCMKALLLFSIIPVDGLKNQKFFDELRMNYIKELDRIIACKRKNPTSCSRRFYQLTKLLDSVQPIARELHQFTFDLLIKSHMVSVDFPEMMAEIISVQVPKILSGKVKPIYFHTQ

Glucocorticoid receptor [4] = biological target: T3, Glucocorticoid receptor (Homo sapiens, UniProt P04150); assay: Displacement of [3H]dexamethasone from human glucocorticoid receptor overexpressed in HEK293 cells by microbeta counting assay; type: cell-based
T3 sequence (P04150 whole entry): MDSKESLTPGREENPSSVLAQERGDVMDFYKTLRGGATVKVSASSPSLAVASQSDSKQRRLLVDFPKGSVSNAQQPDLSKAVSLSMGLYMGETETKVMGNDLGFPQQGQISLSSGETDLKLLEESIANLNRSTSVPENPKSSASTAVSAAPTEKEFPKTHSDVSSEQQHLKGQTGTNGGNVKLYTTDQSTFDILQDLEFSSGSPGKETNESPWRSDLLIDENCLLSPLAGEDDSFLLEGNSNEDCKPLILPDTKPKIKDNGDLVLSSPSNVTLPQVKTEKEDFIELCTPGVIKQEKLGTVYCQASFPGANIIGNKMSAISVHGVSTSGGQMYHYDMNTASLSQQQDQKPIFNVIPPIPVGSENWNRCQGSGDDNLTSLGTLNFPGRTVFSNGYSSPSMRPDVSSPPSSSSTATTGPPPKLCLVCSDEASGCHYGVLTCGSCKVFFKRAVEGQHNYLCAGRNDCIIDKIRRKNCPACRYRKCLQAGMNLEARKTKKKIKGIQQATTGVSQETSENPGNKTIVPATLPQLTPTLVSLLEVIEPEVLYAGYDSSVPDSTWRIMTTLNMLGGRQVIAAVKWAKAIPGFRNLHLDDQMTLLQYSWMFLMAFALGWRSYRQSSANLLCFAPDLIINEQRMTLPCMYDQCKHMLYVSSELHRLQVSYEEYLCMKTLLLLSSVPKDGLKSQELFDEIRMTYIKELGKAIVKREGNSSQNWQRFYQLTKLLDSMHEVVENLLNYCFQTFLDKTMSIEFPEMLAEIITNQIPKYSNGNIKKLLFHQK

[5] = biological target: T4, Mineralocorticoid receptor (Homo sapiens, UniProt P08235); assay: Displacement of [3H]aldosterone from human mineralocorticoid receptor overexpressed in HEK293 cells by microbeta counting assay; type: cell-based
T4 sequence (P08235 whole entry): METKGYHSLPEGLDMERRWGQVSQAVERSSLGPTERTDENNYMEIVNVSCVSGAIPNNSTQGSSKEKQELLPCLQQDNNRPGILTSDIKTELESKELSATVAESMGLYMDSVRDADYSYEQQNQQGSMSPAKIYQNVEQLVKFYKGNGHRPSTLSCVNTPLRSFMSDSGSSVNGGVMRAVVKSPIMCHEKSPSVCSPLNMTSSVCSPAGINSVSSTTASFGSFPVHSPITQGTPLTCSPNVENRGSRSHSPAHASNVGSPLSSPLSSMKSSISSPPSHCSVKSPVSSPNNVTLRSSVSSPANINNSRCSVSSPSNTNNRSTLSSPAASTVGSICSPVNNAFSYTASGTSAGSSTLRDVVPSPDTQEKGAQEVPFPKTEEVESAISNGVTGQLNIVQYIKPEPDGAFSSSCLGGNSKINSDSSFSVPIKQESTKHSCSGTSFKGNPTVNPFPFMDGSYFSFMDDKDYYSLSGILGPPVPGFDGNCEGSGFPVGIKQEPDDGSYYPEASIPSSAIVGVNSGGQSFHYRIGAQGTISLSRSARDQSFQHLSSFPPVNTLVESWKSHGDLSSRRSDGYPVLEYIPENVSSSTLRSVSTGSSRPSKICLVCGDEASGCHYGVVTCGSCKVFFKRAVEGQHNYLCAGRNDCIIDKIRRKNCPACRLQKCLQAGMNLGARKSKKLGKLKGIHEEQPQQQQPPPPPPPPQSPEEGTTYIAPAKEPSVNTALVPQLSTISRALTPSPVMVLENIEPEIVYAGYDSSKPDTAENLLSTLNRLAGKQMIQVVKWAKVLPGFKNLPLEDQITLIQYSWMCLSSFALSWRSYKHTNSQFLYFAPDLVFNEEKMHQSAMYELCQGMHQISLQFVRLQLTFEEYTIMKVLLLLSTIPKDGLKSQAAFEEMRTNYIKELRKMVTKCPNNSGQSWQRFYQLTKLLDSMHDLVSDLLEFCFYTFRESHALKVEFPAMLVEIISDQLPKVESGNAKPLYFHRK

Progesterone receptor [6] = biological target: T1, Progesterone receptor; assay: Antagonist activity against progesterone receptor expressed in CHOK1 cells after 10 to 30 mins by luciferase reporter gene assay; type: functional, cell-based, CHO-K1
Androgen receptor [7] = biological target: T2, Androgen receptor; assay: Antagonist activity against androgen receptor expressed in CHOK1 cells after 10 to 30 mins by luciferase reporter gene assay; type: functional, cell-based, CHO-K1
Glucocorticoid receptor [8] = biological target: T3, Glucocorticoid receptor; assay: Antagonist activity against glucocorticoid receptor expressed in CHOK1 cells after 10 to 30 mins by luciferase reporter gene assay; type: functional, cell-based, CHO-K1
[9] = biological target: T4, Mineralocorticoid receptor; assay: Antagonist activity against human mineralocorticoid receptor expressed in CHOK1 cells after 10 to 30 mins by luciferase reporter gene assay; type: functional, cell-based, CHO-K1
[10] = biological target: T4, Mineralocorticoid receptor; assay: Antagonist activity at mineralocorticoid receptor expressed in african green monkey COS7 cells after 18 hrs by luciferase reporter gene assay; type: functional, cell-based, COS-7
[11] = biological target: T5, Mineralocorticoid receptor (Rattus norvegicus, UniProt P22199); assay: Displacement of [3H]-aldosterone from rat mineralocorticoid receptor after 18 hrs by liquid scintillation counter analysis
T5 sequence (P22199 whole entry): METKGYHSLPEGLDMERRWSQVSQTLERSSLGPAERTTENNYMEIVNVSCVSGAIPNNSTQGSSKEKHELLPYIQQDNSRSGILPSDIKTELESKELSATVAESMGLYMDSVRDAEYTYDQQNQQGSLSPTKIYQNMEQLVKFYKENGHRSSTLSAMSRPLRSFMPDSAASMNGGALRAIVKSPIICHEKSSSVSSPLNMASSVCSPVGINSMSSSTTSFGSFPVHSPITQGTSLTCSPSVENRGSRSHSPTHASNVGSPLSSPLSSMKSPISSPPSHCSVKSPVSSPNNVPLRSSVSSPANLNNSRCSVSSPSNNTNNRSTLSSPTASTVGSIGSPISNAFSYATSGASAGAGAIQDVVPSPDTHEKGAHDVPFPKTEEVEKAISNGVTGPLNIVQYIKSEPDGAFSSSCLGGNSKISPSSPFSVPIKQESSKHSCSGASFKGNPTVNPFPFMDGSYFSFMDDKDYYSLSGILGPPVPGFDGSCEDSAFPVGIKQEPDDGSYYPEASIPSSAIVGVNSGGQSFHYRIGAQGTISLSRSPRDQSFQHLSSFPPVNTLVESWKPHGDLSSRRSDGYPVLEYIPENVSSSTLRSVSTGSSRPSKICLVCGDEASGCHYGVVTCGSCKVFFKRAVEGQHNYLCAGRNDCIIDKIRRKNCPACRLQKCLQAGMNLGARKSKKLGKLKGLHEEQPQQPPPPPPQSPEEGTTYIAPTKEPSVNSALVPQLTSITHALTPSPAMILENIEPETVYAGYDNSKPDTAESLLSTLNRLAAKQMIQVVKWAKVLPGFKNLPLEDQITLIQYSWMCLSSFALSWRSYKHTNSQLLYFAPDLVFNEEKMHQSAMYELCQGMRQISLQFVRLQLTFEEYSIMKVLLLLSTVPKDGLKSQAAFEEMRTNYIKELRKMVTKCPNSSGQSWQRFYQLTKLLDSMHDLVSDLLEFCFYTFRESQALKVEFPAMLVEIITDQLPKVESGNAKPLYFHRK

[12] = biological target: T5, Mineralocorticoid receptor; assay: Displacement of [3H]Aldosterone C from rat mineralocorticoid receptor by liquid scintillation counter analysis
[13] = biological target: T4, Mineralocorticoid receptor; assay: Antagonist activity at mineralocorticoid receptor; type: functional
[14] = Protein binding in plasma; type: ADME, cell-free; conditions: read-out: PPB (converted)
[15] = Binding affinity to Ca2+ channel L type by radioligand binding assay
[16] = biological target: T5, Mineralocorticoid receptor; assay: Binding affinity to rat mineralocorticoid receptor

IC50 (Progesterone receptor [1]): > 10 µM
Structure (SMILES): O=C1COc2ccc(C3=Nn4cnnc4SC3c3ccccc3)cc2N1 (configuration not stated)

IC50 [10]: 0.13 µM | IC50 [11]: 0.021 µM
Structure (SMILES): CC1(C)OC(=S)Nc2ccc(NS(=O)(=O)c3cccs3)cc21

IC50 [12]: 0.022 µM
Structure (SMILES): COc1cc(C(=O)Nc2ccc(-c3ccccc3OC(F)(F)F)c(CCN(C)C3CC3)c2)ccc1S(N)(=O)=O

IC50 [13]: 0.0024 µM
Structure (SMILES): Cc1c(C(=O)Nc2ccc(S(C)(=O)=O)cc2)cn(CCO)c1-c1ccccc1C(F)(F)F

IC50 [16]: < 0.5 µM
Structure (SMILES): CC1(C)Oc2cc(NS(C)(=O)=O)ccc2N(c2ccc(F)cc2)C1=O [MT-3995]

More lines, now with the values behind:

Structure (SMILES): O=c1[nH]c2cc(/C=C3\c4ccccc4COc4cc(F)ccc43)ccc2n1[C@H]1C[C@H]2COCCN2C1
Ki (Progesterone receptor [2]): 0.478 µM | Ki (Androgen receptor [3]): 1.17 µM | Ki (Glucocorticoid receptor [4]): 0.669 µM | Ki [5]: 0.0004 µM

Structure (SMILES): CCOC(=O)C1=C(C)NC(C)=C(C(C)=O)[C@H]1c1cccc2c(=O)cc(C)oc12
IC50 (Progesterone receptor [6]): 9.02 µM | IC50 (Androgen receptor [7]): 4.44 µM | IC50 (Glucocorticoid receptor [8]): 5.47 µM | IC50 [9]: 0.028 µM

Structure (SMILES): COC(=O)[C@@H]1CC2=CC(=O)CC[C@]2(C)[C@@]23O[C@@H]2C[C@@]2(C)[C@@H](CC[C@@]24CCC(=O)O4)[C@H]13 [EPLERENONE]
fraction unbound [14]: 0.1

Structure (SMILES): CCOc1ncc(C)c2c1[C@H](c1ccc(C#N)cc1OC)C(C(N)=O)=C(C)N2 [FINERENONE]
IC50 [15]: > 1 µM

Structure (SMILES): CC(=O)S[C@@H]1CC2=CC(=O)CC[C@]2(C)[C@H]2CC[C@@]3(C)[C@@H](CC[C@@]34CCC(=O)O4)[C@H]12 [SPIRONOLACTONE]
fraction unbound [14]: 0.51
